Measurements published in paper PMC4900566, “Pharmacokinetic-Pharmacodynamic Analysis on Inflammation Rat Model after Oral Administration of Huang Lian Jie Du Decoction” (PLoS ONE, 2016).
Where two headings read alike, the source gives them in different places. Values belong to the molecule of their own block, whether it stands above or below them.

Legend:
[1] = Hepatic first-pass effect / hepatic clearance rate (jugular vs pyloric vein AUC0-t) in inflamed rats; assay type: in vivo, Sprague-Dawley rats; conditions: inflamed rats (G5, n = 5), oral HLJDD; HCR% = 100×(AUC0−t pyloric vein − AUC0−t jugular vein)/AUC0−t pyloric vein
Experimental: (§1) For the PK-PD analysis, cannulas were implanted in each rat’s jugular vein (n = 22). To study the hepatic first-pass effect (HFPE), the jugular vein and the pyloric vein of each rat (n = 5) were cannulated according to the method described by Hye J. Chung et al. with slight modifications. Instead of the portal vein, the pyloric vein was cannulated to minimize the interference of blood flow in the portal vein [41]. The surgery was performed under anesthesia (3% chloral hydrate solution, intraperitoneal injection; 3.5 mL/kg) 5 days prior to the experiment. Rats with jugular vein intubation surgery were divided into four groups: a control group with HLJDD (G1, n = 6), aninflammatory group with HLJDD (G2, n = 6), aninflammatory group with physiological saline (G3, n = 5) and another inflammatory group with HLJDD (G4, n = 5). G1 and G2 were used for the pharmacokinetic study, while G3 and G4 were used for the pharmacodynamic study. Rats with jugular and pyloric vein cannulation for HFPE analysis were assigned to another inflammatory group with HLJDD (G5, n = 5).
The prepared HLJDD-EP solution was administered to the rats (G1, G2, G4 and G5) at 2 mL/100g body weight (crude material content: 3.5 g/kg) by oral gavage, and the G3 group was given the same volume of physiological saline. In the G1 and G2 groups, blood specimens (300 μL) were obtained before dosing and subsequently at 5 min, 10 min, 30 min, 1, 2, 4, 6, 8, 12, 24, 36 and 48 h after the oral administration of HLJDD-EP solution. In the G3 and G4 groups, blood samples (300 μL) were collected prior to dosing and followed at 10 min, 30 min, 1, 2, 4, 8, 24 and 48 h after drug administration. The rectal temperature of rats in the G3 and G4 groups was immediately monitored after each collection of blood. For the HFPE assay, blood specimens (150 μL) from both the jugular vein and the pyloric vein of the G5 rats were simultaneously taken before dosing and subsequently at 5 min, 10 min, 30 min, 1, 2, 4, 6, 8, 12, 24, 36 and 48 h after oral administration. Samples were collected in heparinized Eppendorf tubes and centrifuged at 3000 rpm for 15 min. The plasma was stored at -80°C until assay.
For the pharmacokinetic investigation and HFPE analysis, 100 μL aliquots of plasma were mixed with 5 μL of ascorbic acid (dissolved in physiological saline, w/v: 1 g/100 mL) and 200 μL of methanol (containing an internal standard stock solution with 80.0 ng/mL swertiamarin, 1.5 ng/mL corynoline and 33.0 ng/mL icariin), followed by vortexing and centrifuging at 15000 rpm for 20 min to remove the precipitate. The supernatant was dried with nitrogen at 40°C. […] The supernatant was analyzed using Agilent 1290 ultra-high performance liquid chromatography coupled with an Agilent 6490 Triple Quadrupole Mass Spectrometer (Agilent Technologies, Palo Alto, CA, USA).
Pharmacokinetic parameters of the determined compounds were processed by the non-compartmental method using Phoenix Winnonlin software (Pharsight Corporation, USA). […] The mean residence time (MRT) was determined as AUMC/AUC. The plasma half-life (HLλz), maximum plasma concentration (Cmax), the time to reach Cmax (Tmax) and other parameters following the administration of HLJDD were determined from the observed data. […] Concentrations of cytokines were analyzed by cytometric bead array software (FCAP Array version 3.0, BD Bioscience). All the data were expressed as the mean±standard deviation (SD). […]

[2] = Pharmacokinetics of HLJDD components in rat plasma after oral administration of HLJDD (LC-QqQ-MS, non-compartmental); assay type: in vivo, Sprague-Dawley rats; conditions: oral HLJDD extract; for AUC%Extrap / AUMClast / Cmax1 / Cmax2 / HLλz / Tmax1 / Tmax2 / AUC(0-inf) / AUC(0-t) / MRT last / CL/F / Vd/F / AUCinf / AUClast / MRTlast / Vz/F: crude material 3.5 g/kg, plasma, n = 6; for Vd/F: read-out: Vz/F
Experimental: The rats were acclimatized to the facilities for 5 days and screened via the continuous determination of the rectal temperature for two days. […] The control group G1 was injected with the same volume of physiological saline. The ethics committees of Cisco North Biotechnology Co., Ltd. (Beijing, China) and the China Academy of Chinese Medical Sciences (Beijing, China) approved the experimental protocol.
as §1
The prepared HLJDD-EP solution was administered to the rats (G1, G2, G4 and G5) at 2 mL/100g body weight (crude material content: 3.5 g/kg) by oral gavage, and the G3 group was given the same volume of physiological saline. […] The rectal temperature of rats in the G3 and G4 groups was immediately monitored after each collection of blood. […] Samples were collected in heparinized Eppendorf tubes and centrifuged at 3000 rpm for 15 min. The plasma was stored at -80°C until assay.
The supernatant was dried with nitrogen at 40°C. The residue was re-dissolved in 100 μL of methanol and centrifuged at 15000 rpm for 10 min.
Liquid chromatographic separations of the analytes were performed using a Thermo Scientific Hypersil GOLD column (50 mm× 2.1 mm, 1.9 μm). The mobile phase consisted of acetonitrile (solvent A) and 0.1% formic acid in water (solvent B). […] The flow rate was 0.3 mL/min. The injection volume was 2 μL. […] The optimized ESI source parameters were as follows: gas temperature, 200°C; gas flow, 14 L/min; nebulizer pressure, 20 psi; sheath gas temperature, 400°C; and sheath gas flow, 11 L/min. Analytes were quantitated by monitoring the precursor-product combination in the DMRM mode using ion polarity switching (flavonoids and alkaloids were determined in the positive mode, while iridoids were detected in the negative mode). To ensure the desired abundance of each compound, the CE values and other parameters were optimized and illustrated as follows: cycle time, 300 ms; positive capillary voltage, 3000 v; negative capillary voltage, 2000 v; positive nozzle voltage, 1500 v; negative nozzle voltage, 1000 v; Delta EMV(+), 200 v; Delta EMV(-), 200 v. The optimized mass transition ion pairs (m/z) for analytes and the detection of the conditions of the compounds are shown in S1 Table.
Pharmacokinetic parameters of the determined compounds were processed by the non-compartmental method using Phoenix Winnonlin software (Pharsight Corporation, USA). Linear trapezoidal integration was used to calculate areas under the concentration-time curves (AUC) and areas under the first moment curves (AUMC). The mean residence time (MRT) was determined as AUMC/AUC. The plasma half-life (HLλz), maximum plasma concentration (Cmax), the time to reach Cmax (Tmax) and other parameters following the administration of HLJDD were determined from the observed data. The HFPE was defined as HCR: HCR% = 100×(AUC0−t in the pyloric vein-AUC0−t in the jugular vein)/AUC0−t in the pyloric vein.

[3] = male, Sprague-Dawley, rat, po, 3.5 g/kg, inflamed rats (group M)
[4] = male, Sprague-Dawley, rat, po, 3.5 g/kg, normal rats (group B)

Compound: COc1cc(O[C@@H]2O[C@H](C(=O)O)[C@@H](O)[C@H](O)[C@H]2O)c2c(=O)cc(-c3ccccc3)oc2c1O[C@@H]1O[C@H](C(=O)O)[C@@H](O)[C@H](O)[C@H]1O [F4, 5,8-dihyroxy-7-methoxy flavone-5,8-di-O-glucuronide]
hepatic clearance rate (HCR) [1]: approximately zero

Compound: COc1cc(O)c2c(=O)cc(-c3ccccc3)oc2c1O[C@@H]1O[C@H](C(=O)O)[C@@H](O)[C@H](O)[C@H]1O [F7, 5,8-dihyroxy-7-methoxy flavone-8-O-glucuronide]
hepatic clearance rate (HCR) [1]: approximately zero

Compound: COc1c(O)cc(O)c2c(=O)cc(-c3ccccc3)oc12 [wogonin]
AUC%Extrap ([2]; inflamed rats (group M)): 1.3±0.7%
AUMClast ([2]; inflamed rats (group M)): 442.5±232.9 h*h*ng/ml
Cmax1 ([2]; inflamed rats (group M)): 3.3 ± 0.7 ng/mL
Cmax2 ([2]; inflamed rats (group M)): 4.3 ± 1.8 ng/mL
HLλz ([2]; inflamed rats (group M)): 7.1 ± 2.7 h
Tmax1 ([2]; inflamed rats (group M)): 4.8 ± 0 min
Tmax2 ([2]; inflamed rats (group M)): 7.3 ± 2.7 h
mean AUClast, fold larger in the inflamed group than in the control group ([2]; inflamed vs normal rats): 5.4 fold
AUC(0-inf) [2, 3]: 39.2 ± 8 ng·h/mL
AUC(0-t) [2, 3]: 38.7 ± 8.1 ng·h/mL
MRT last [2, 3]: 11 ± 3.5 h
CL/F ([2]; male, Sprague-Dawley, rat, po, 3.5 g/kg, inflamed rats (group M), read-out: CL/F (converted)): 2740 mL/min/kg
Vd/F [2, 3]: 1710 ± 667 L/kg
AUC(0-inf) [2, 4]: 7.4 ± 2.6 ng·h/mL
AUC(0-t) [2, 4]: 7.2 ± 2.6 ng·h/mL
MRT last [2, 4]: 4.3 ± 0.8 h
Vd/F [2, 4]: 4010 ± 1350 L/kg
AUC%Extrap ([2]; normal rats (group B)): 2.7±2.3%
AUMClast ([2]; normal rats (group B)): 31.8±14.3 h*h*ng/ml
Cmax1 ([2]; normal rats (group B)): 2.2 ± 1.2 ng/mL
Cmax2 ([2]; normal rats (group B)): 1.6 ± 0.7 ng/mL
HLλz ([2]; normal rats (group B)): 3.5 ± 1.3 h
Tmax1 ([2]; normal rats (group B)): 5.4 ± 1.8 min
Tmax2 ([2]; normal rats (group B)): 4.0 ± 0.0 h

Compound: COc1c(O[C@@H]2O[C@H](C(=O)O)[C@@H](O)[C@H](O)[C@H]2O)cc(O)c2c(=O)cc(-c3ccccc3)oc12 [wogonoside]
AUC%Extrap ([2]; inflamed rats (group M)): 17.3±13.8%
AUCinf ([2]; inflamed rats (group M)): 8380.9 ± 1944.5 ng·h/mL
AUClast ([2]; inflamed rats (group M)): 6870.4 ± 1786.5 ng·h/mL
AUMClast ([2]; inflamed rats (group M)): 92756.1±44786.8 h*h*ng/ml
CL/F ([2]; inflamed rats (group M)): 190 ± 45 mL/min/kg
Cmax1 ([2]; inflamed rats (group M)): 571.9 ± 183.4 ng/mL
Cmax2 ([2]; inflamed rats (group M)): 323.9 ± 52.5 ng/mL
HLλz ([2]; inflamed rats (group M)): 12.2 ± 5.9 h
MRTlast ([2]; inflamed rats (group M)): 12.9 ± 3.0 h
Tmax1 ([2]; inflamed rats (group M)): 9.6 ± 4.8 min
Tmax2 ([2]; inflamed rats (group M)): 8.7 ± 3.0 h
Vz/F ([2]; inflamed rats (group M)): 188.6 ± 72.3 L/kg
AUC%Extrap ([2]; normal rats (group B)): 9.6±6.6%
AUCinf ([2]; normal rats (group B)): 3615.4 ± 872.3 ng·h/mL
AUClast ([2]; normal rats (group B)): 3302.3 ± 975.1 ng·h/mL
AUMClast ([2]; normal rats (group B)): 15357.0±3545.6 h*h*ng/ml
CL/F ([2]; normal rats (group B)): 442 ± 117 mL/min/kg
Cmax1 ([2]; normal rats (group B)): 492.9 ± 152.9 ng/mL
Cmax2 ([2]; normal rats (group B)): 517.7 ± 173.8 ng/mL
HLλz ([2]; normal rats (group B)): 3.0 ± 1.0 h
MRTlast ([2]; normal rats (group B)): 4.7 ± 0.5 h
Tmax1 ([2]; normal rats (group B)): 6.6 ± 2.4 min
Tmax2 ([2]; normal rats (group B)): 4.3 ± 0.8 h
Vz/F ([2]; normal rats (group B)): 118.7 ± 58.0 L/kg

The next lines start with the values.

hepatic clearance rate (HCR) [1]: -43.7%
Compound: COC(=O)C1=CO[C@@H](O[C@@H]2O[C@H](CO)[C@@H](O)[C@H](O)[C@H]2O)[C@H]2[C@@H]1C=C[C@@]2(O)CO [I1, gardenoside]

hepatic clearance rate (HCR) [1]: approximately zero
Compound: COC(=O)C1=CO[C@@H](O[C@@H]2O[C@H](CO)[C@@H](O)[C@H](O)[C@H]2O)[C@@H]2C(CO)=C[C@@H](O)[C@H]12 [I2, scandoside methyl ester]

hepatic clearance rate (HCR) [1]: -156.6%
Compound: COC(=O)C1=CO[C@@H](O[C@@H]2O[C@H](CO[C@@H]3O[C@H](CO)[C@@H](O)[C@H](O)[C@H]3O)[C@@H](O)[C@H](O)[C@H]2O)[C@@H]2C(CO)=CC[C@H]12 [I3, genipin-1-gentiobioside]
